Source: patent publication US10820823B2, “Evaluation of inhibitory circuit and use thereof” (INTER-UNIVERSITY RESEARCH INSTITUTE C[…] INSTITUTES OF …, priority 2015, dated 2020)

Experiments:
[1] = tested on: inhibitory circuit (GABA-A early inhibition); assay: Inhibition rate (prepulse attenuation) of auditory change-related brain activity by magnetoencephalography, before and after drug administration; assay type: in vivo, human; settings: for effect of drug on inhibition: 5 mg single oral administration
Protocol: In the present embodiment, an action of inhibitory circuits of 13 humans was evaluated using an excitatory circuit for a change response to a sound pressure change in an auditory system. As for the change response, when a sudden slight increase in sound pressure (10 dB) is generated in a background sound in which a short click sound (70 dB) of 1 ms is continuously generated at a frequency of 100 Hz, the human brain reacts thereto with very high sensitivity and a remarkable brain response is triggered.
The evaluation system included a stimulus output unit and a brain activity measurement unit.
Full-head measurement with the cerebral magnetic field measurement unit was performed using a magnetoencephalograph (306 channel magnetoencephalograph (Vector View, Neuromag, Helsinki, Finland)).
Three kinds of stimuli, namely, the test stimulus, the preceding stimulus, and the test+preceding stimulus were sequentially applied to the subject at regular intervals from the stimulus output irnit through an insert earphone from the start of the test, and brain activity induced by the activation of the excitatory circuit at this time was measured as a cerebral magnetic field. […] A predetermined number of trials could be designated in the cerebral magnetic field measurement unit, addition was performed automatically, and an attenuation rate (inhibition rate) was obtained from the amplitude of the addition waveform.
Effect of diazepam (5 mg single oral administration) on inhibition was examined by comparing the inhibition rates before and after the administration of the drug to two subjects of different types by the same recording procedure as in first embodiment. The amplitude of the response was taken between vertices of a component of 50 ms and a component of 100 ms (black triangles).

[2] = tested on: GABA-A early inhibition due to basket cells; settings: slice specimens; cited from earlier work

Structure (SMILES): CN1C(=O)CN=C(c2ccccc2)c2cc(Cl)ccc21 [diazepam]
- change of inhibition after the administration ([1]; Subject 1 (strong inhibition before administration), diazepam 5 mg single oral administration, 1 hour after administration): little change
- effect of drug on inhibition ([1]; Subject 1): small effect
- inhibition rate after the administration ([1]; Subject 2 (weak early inhibition before administration), diazepam 5 mg single oral administration, 1 hour after administration): 45%
- effect of drug on inhibition ([1]; Subject 2): strong effect
- effect on GABA-A early inhibition due to basket cells [2]: enhances
